Assays:
CD138+ myeloma cells = experiment: Unsorted myeloma patient bone marrow, flow cytometry: CD138+ myeloma cells; format: cell-based, human
Protocol: (§1) Flow cytometry. HMCL were treated as indicated and then washed in cold phosphate-buffered saline (PBS) and resuspended in buffer containing AnnexinV-FITC and propidium iodide (BD Biosciences, San Jose, Calif.) for 15 minutes at room temperature. Cells (10^5) were subsequently diluted and analyzed immediately by flow cytometry (FACScan, BD Biosciences, San Jose, Calif.) using CellQuest software. Patient bone marrow specimens were prepared and analyzed in a similar fashion using AnnexinV-FITC and anti-CD138-PE (BD Biosciences, San Jose, Calif.).
As mouse embryos that lack any D-cyclins eventually die from hematopoietic failure (Kozar et al., Cell, 118, 477-91 (2004)), the bone marrow might be predicted to be one of the most sensitive non-malignant tissue to be affected by drugs targeting cyclin D expression. Unsorted bone marrow samples from myeloma patients were treated with kinetin riboside to assess the relative cytotoxicity of this drug on malignant versus non-malignant marrow cells. Bone marrow samples were first processed to remove non-nucleated red cells and were then treated for 48 hours with kinetin riboside (5 μM).

HMCL = experiment: Annexin V / propidium iodide flow cytometry of HMCL; format: cell-based, human
Protocol: as §1

8226 tumors = experiment: 8226 myeloma xenograft in nude mice; format: in vivo
Protocol: FIG. 14. Kinetin riboside induces tumor growth arrest in My5 and 8226 myeloma tumor xenografts. (A) Matched pairs of nude mice bearing My5 tumors were treated intra-peritoneally (i.p.) with vehicle control (□) or with kinetin riboside (▪) at escalating dose-density from 100 mg/kg once daily to 85mg/kg 5×/daily, administered 5 days per week, commencing after mean tumor volume reached 135mm^3. Mean tumor volumes±SEM are shown from the time of xenografting (n=4/group). […]
(§2) Female nude X-linked immune-deficient (BNX) mice purchased from NCI-Frederick were used for in vivo studies. Animals had access to food and water ad libitum and were handled in accordance with animal care and use guidelines. Eight-week-old mice were inoculated with My5 or 8226 (2×10^7) MM cells subcutaneously (s.c.) in the right flank. Kinetin riboside (pre-dissolved in DMSO at 500 mg/mL and stored at −20° C.) was formulated daily by dropwise dissolution to 3.7 mg/mL in pre-warmed (37° C.) 0.9% saline, 1% β2-hydroxypropylcyclodextrin (Sigma) solution and was administered 1×-5× daily at 85 mg/kg/dose. The first dose daily was given intraperitoneally and remaining doses were given s.c. with increasing dosing intervals (30, 60, 120, 180 minutes). Tumor volumes were measured using vernier calipers and calculated with the formula L×W×H×2/3. P-values were calculated by paired t-test (JMP 6.0, SAS; Cary, N.C.).

[1] = Tolerability of kinetin riboside in xenografted BNX mice; format: in vivo
Protocol: as §2
The anti-tumor activity of kinetin riboside in vivo was evaluated against My5 and 8226 human myeloma tumors grown as xenografts in nude mice. Drug or vehicle were initially administered once daily with dosing up to100 mg/kg/day, however, no effect on 8226 or My5 (FIG. 14A) tumor growth was observed. […] Xenograft studies were then repeated with 8226 tumors using kinetin riboside 85 mg/kg 4× daily upfront, started when tumors had reached a mean volume of 135 mm^3 (FIG. 14B). […] No effects on neutrophil counts (at 14 days treatment) or on body weight were observed.

For OC[C@H]1O[C@@H](n2cnc3c(NCc4ccco4)ncnc32)[C@H](O)[C@@H]1O [kinetin riboside, N6-Furfuryladenosine], the “kill of patient CD138+ myeloma cells” value (CD138+ myeloma cells; 5 μM, 48 hours) was 92%, the “effect on primary CD138+ myeloma cells” value (CD138+ myeloma cells; patient bone marrow, 48 hours) was “most CD138+ cells become apoptotic” and the “activity against CD138+ myeloma cells compared with non malignant hematopoietic cells” value (CD138+ myeloma cells; unsorted myeloma patient bone marrow samples) was “selective activity”. For the same compound, the “time to Annexin-V surface binding and loss of CD138 expression” value (HMCL) was 24 to 96 h, the “response of H929 cells” value (HMCL; H929, 10 μM) was “apoptosis” and the “response of U266 cells” value (HMCL; U266, 10 μM, 96 hours) was “growth inhibition”. For the same compound, the “effect on 8226 tumors compared to vehicle-treated mice” value (8226 tumors; 85 mg/kg 4× daily upfront, p<0.01) was “Statistically significant tumor growth inhibition”, the “effect on 8226 tumor growth” value (8226 tumors; once daily, up to 100 mg/kg/day) was “no effect” and the “effect on neutrophil counts” value ([1]; at 14 days treatment) was “No effects”. For the same compound, the “effect on body weight” value ([1]; mouse, in vivo) was “No effects” and the “tolerability of rapidly repeated doses” value ([1]; up to five per day at 85 mg/kg/dose) was “well tolerated”.

Reference: US8822440B2, “Inhibiting cyclin D polypeptides” (Mayo Foundation for Medical Education and Research, priority 2006, dated 2014)
